Measured values as given in the CheMixHub viscosity set.

Assay: xn = mol fraction of the nth substance listed

NC=O + CCC(C)O
101 kPa
Details | viscosity [mPa·s]
293.15 K, x1 = 0.5093 | 4.025
318.15 K, x1 = 0.9024 | 2.175

CN1CCC[C@H]1c1cccnc1 + CCCC(=O)O
viscosity [mPa·s], 101 kPa
Details | 298.15 K | 323.15 K
x1 = 0.099 | 11.74 | 5.188
x1 = 0.1992 | 48.69 | 14.24
x1 = 0.2139 | 52.39 | 14.9
x1 = 0.2277 | 53.82 | 15.04
x1 = 0.234 | 53.97 | 15.13
x1 = 0.2478 | 54.2 | 14.99
x1 = 0.2707 | 53.87 | 14.89
x1 = 0.2993 | 50.77 | 13.9
x1 = 0.3872 | 29.61 | 9.46
x1 = 0.5011 | 17.55 | –
x1 = 0.6081 | 11.63 | 4.462
x1 = 0.697 | 8.404 | 3.766
x1 = 0.804 | 6.265 | 2.983
x1 = 0.8928 | 5.192 | 2.579

CCOC(=O)CCC(=O)OCC + CCCC(=O)OCC
Details | viscosity [mPa·s]
303.15 K, 100 kPa, x2 = 0.3003 | 1.535

CCCCCCCCCCC + CCCCC
viscosity [mPa·s]
Details | 293.15 K | 298.15 K | 303.15 K | 308.15 K | 313.15 K | 318.15 K | 323.15 K
100 kPa, x2 = 0.1034 | 1.033 | 0.957 | 0.887 | 0.825 | 0.77 | 0.721 | 0.677
100 kPa, x2 = 0.2018 | 0.906 | 0.842 | 0.784 | 0.732 | 0.686 | 0.645 | 0.607
100 kPa, x2 = 0.3079 | 0.774 | 0.723 | 0.676 | 0.634 | 0.597 | 0.563 | 0.531
100 kPa, x2 = 0.3996 | 0.689 | 0.645 | 0.606 | 0.571 | 0.538 | 0.509 | 0.483
100 kPa, x2 = 0.5027 | 0.594 | 0.556 | 0.523 | 0.494 | 0.468 | 0.444 | 0.422
100 kPa, x2 = 0.6106 | 0.488 | 0.461 | 0.437 | 0.415 | 0.395 | 0.376 | 0.366
100 kPa, x2 = 0.702 | 0.427 | 0.405 | 0.386 | 0.368 | 0.358 | – | –
100 kPa, x2 = 0.8003 | 0.359 | 0.341 | 0.324 | 0.308 | – | – | –
100 kPa, x2 = 0.8988 | 0.287 | 0.273 | 0.259 | – | – | – | –
101.33 kPa, x2 = 0.0962 | – | 0.9653 | – | – | – | – | –
101.33 kPa, x2 = 0.1826 | – | 0.8798 | – | – | – | – | –
101.33 kPa, x2 = 0.274 | – | 0.7841 | – | – | – | – | –
101.33 kPa, x2 = 0.368 | – | 0.6944 | – | – | – | – | –
101.33 kPa, x2 = 0.4834 | – | 0.5825 | – | – | – | – | –
101.33 kPa, x2 = 0.5738 | – | 0.5061 | – | – | – | – | –
101.33 kPa, x2 = 0.6599 | – | 0.4333 | – | – | – | – | –
101.33 kPa, x2 = 0.7461 | – | 0.3731 | – | – | – | – | –
101.33 kPa, x2 = 0.8967 | – | 0.2805 | – | – | – | – | –
